How the values were obtained:
[1] = target: Protein cereblon/Interleukin-1 receptor-associated kinase 4 (Homo sapiens, UniProt Q96SW2+Q9NWZ3); experiment: Binding affinity to CRBN/IRAK4 […] assessed as dissociation constant by DiscoverX Kd Elect assay
[2] = Volume of distribution at steady state in rat at 2 mg/kg, iv by LC-MS/MS analysis; format: ADME, organism-based; conditions: in vivo, read-out: Vdss
[3] = Clearance in rat at 2 mg/kg, iv by LC-MS/MS analysis; format: ADME, organism-based; conditions: in vivo
[4] = Half life in rat at 2 mg/kg, iv by LC-MS/MS analysis; format: ADME, organism-based; conditions: in vivo
[5] = target: Cereblon/Ikaros (Homo sapiens, UniProt Q96SW2+Q13422); experiment: PROTAC activity at CRBN/Ikaros in human OCI-Ly10 cells assessed as induction of Ikaros degradation measured after 24 hrs by MSD assay; format: cell-based
Cereblon/Ikaros, sequence (Q96SW2 whole entry): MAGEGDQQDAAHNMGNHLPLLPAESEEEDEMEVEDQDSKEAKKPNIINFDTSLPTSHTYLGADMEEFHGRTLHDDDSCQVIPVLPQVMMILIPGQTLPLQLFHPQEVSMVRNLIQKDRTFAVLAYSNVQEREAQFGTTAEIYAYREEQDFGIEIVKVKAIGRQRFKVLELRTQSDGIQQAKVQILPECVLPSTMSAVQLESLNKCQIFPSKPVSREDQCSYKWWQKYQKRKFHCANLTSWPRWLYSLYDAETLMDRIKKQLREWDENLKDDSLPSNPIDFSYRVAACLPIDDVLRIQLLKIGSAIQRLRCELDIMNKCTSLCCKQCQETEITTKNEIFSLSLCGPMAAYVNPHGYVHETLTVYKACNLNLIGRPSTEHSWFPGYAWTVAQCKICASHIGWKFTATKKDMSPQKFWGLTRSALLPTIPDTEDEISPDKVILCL
Cereblon/Ikaros, sequence (Q13422 whole entry): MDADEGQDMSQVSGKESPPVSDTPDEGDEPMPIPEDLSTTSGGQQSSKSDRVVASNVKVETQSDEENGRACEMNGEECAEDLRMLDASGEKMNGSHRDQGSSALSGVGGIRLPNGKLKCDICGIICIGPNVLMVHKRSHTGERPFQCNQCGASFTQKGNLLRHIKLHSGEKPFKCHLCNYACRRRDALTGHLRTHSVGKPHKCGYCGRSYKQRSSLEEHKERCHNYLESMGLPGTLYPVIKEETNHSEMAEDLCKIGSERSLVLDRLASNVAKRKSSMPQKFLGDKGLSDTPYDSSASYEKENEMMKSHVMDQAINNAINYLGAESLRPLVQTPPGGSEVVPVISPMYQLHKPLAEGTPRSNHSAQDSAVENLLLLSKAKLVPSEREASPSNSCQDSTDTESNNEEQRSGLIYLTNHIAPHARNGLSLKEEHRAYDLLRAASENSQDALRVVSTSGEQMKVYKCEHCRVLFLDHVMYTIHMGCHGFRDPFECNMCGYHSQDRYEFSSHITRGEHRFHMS

[6] = target: T1, Protein cereblon/Interleukin-1 receptor-associated kinase 4 (Homo sapiens, UniProt Q9NWZ3+Q96SW2); experiment: PROTAC activity at CRBN/IRAK4 in human OCI-Ly10 cells assessed as induction of IRAK4 degradation measured after 24 hrs by MSD assay; format: cell-based
Target sequence in this assay (Q9NWZ3 whole entry): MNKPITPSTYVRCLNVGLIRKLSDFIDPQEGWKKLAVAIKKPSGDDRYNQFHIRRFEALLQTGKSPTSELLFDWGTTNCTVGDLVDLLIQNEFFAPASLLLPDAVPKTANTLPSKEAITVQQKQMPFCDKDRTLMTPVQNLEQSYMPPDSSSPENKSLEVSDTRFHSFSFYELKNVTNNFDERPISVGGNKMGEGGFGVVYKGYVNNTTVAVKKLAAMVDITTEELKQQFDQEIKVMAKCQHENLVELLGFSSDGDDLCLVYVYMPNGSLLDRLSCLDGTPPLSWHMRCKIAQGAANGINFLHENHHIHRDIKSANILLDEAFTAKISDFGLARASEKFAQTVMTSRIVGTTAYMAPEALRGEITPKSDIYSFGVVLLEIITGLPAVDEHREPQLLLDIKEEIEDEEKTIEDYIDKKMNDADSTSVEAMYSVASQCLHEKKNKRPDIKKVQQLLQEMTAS
Target sequence in this assay (Q96SW2 whole entry): as the sequence (Q96SW2 whole entry) above

[7] = Oral bioavailability in rat at 10 mg/kg by LC-MS/MS analysis; format: ADME, organism-based; conditions: in vivo; for F: po, 10 mg/kg
[8] = test system: OCI-Ly10; experiment: Antiproliferative activity against human OCI-Ly10 cells measured after 4 days by CellTiter-Glo Luminescent Cell Viability Assay; format: functional, cell-based
[9] = target: Protein cereblon (Homo sapiens, UniProt Q96SW2); experiment: Binding affinity to CRBN (unknown origin) by HTRF assay
Protein cereblon, sequence (Q96SW2 whole entry): as above

[10] = Metabolic stability in human liver microsomes assessed as intrinsic clearance at 1 uM measured upto 60 mins in presence of NADPH by UPLC/MS-MS analysis; format: ADME, Microsome; conditions: read-out: CLH
[11] = Metabolic stability in rat liver microsomes assessed as intrinsic clearance at 1 uM measured upto 60 mins in presence of NADPH by UPLC/MS-MS analysis; format: ADME, Microsome; conditions: read-out: CLH
[12] = AUC in rat at 10 mg/kg, po by LC-MS/MS analysis; format: ADME, organism-based; conditions: in vivo
[13] = Passive permeability of the compound in wild type MDCK cells across apical to basolateral side at 1 uM measured for 120 mins by LC-MS/MS analysis; format: ADME, cell-based, Canis lupus familiaris; conditions: dog, read-out: permeability
[14] = target: T1, Protein cereblon/Interleukin-1 receptor-associated kinase 4; experiment: PROTAC activity at CRBN/IRAK4 in human OCI-Ly10 cells assessed as induction of IRAK4 degradation measured after 24 hrs by MSD assay relative to control; format: cell-based
Target sequence in this assay (Q96SW2 whole entry, looked up): as the sequence (Q96SW2 whole entry) above
Target sequence in this assay (Q9NWZ3 whole entry, looked up): as the sequence (Q9NWZ3 whole entry) above

Protein cereblon/Interleukin-1 receptor-associated kinase 4 (Homo sapiens, UniProt Q96SW2+Q9NWZ3), sequence (Q9NWZ3 whole entry): as above
Protein cereblon/Interleukin-1 receptor-associated kinase 4 (Homo sapiens, UniProt Q96SW2+Q9NWZ3), sequence (Q96SW2 whole entry): as the sequence (Q96SW2 whole entry) above

Row | Structure (SMILES) | Kd [1] [nM] | Vd [2] [L/kg] | clearance [3] [mL/min/kg] | half-life [4] [h] | DC50 [5] [nM] | DC50 [6] [nM] | bioavailability [7] [%] | IC50 ([8]; Homo sapiens, OCI-Ly10, 96 h) [nM] | IC50 [9] [nM] | microsomal CLint at 1 µM [10] [µL/min/mg] | microsomal CLint at 1 µM [11] [µL/min/mg] | AUC ([12]; read-out: AUC) [µM·h] | Papp A→B at 2 h, 1 µM [13] [×10⁻⁶ cm/s] | IC50 ([8]; oci-ly10) [nM] | Emax [14] [%] | F [7] [%] | AUC ([12]; po, 10 mg/kg) [µM·h]
1 | CC(C)(O)c1cc2nn(-c3ccc(CO)cc3)cc2cc1NC(=O)c1cccc(C(F)(F)F)n1 | 3.5 | – | – | – | – | – | – | – | – | – | – | – | – | – | – | – | –
2 | CC(C)(O)c1cc2nn([C@H]3CC[C@H](CN4CCC(O[C@H]5C[C@H](Nc6cccc7c6C(=O)N(C6CCC(=O)NC6=O)C7=O)C5)CC4)CC3)cc2cc1NC(=O)c1cccc(C(F)(F)F)n1 (stereo not given in full) | – | 8.9 | 7 | 16 | 470 | 5 | 29 | 2300 | 26 | 4.1 | 3.8 | 5.3 | 26 | – | – | – | –
3 | CN(C[C@H]1CC[C@H](n2cc3cc(NC(=O)c4cccc(C(F)(F)F)n4)c(C(C)(C)O)cc3n2)CC1)[C@H]1CC[C@@]2(CC1)C[C@H](Nc1cccc3c1C(=O)N(C1CCC(=O)NC1=O)C3=O)C2 (stereo not given in full) | – | – | – | – | 19 | 13 | – | – | 5 | < 1.8 | < 1.8 | – | 2.9 | 134 | – | – | –
4 | CN(CCCOCCCNc1cccc2c1C(=O)N(C1CCC(=O)NC1=O)C2=O)C[C@H]1CC[C@H](n2cc3cc(NC(=O)c4cccc(C(F)(F)F)n4)c(C(C)(C)O)cc3n2)CC1 (stereo not given in full) | 0.66 | – | – | – | 21 | 12 | – | 270 | 32 | 60 | 53 | – | 7.5 | – | – | – | –
5 | CN(CCCNc1cccc2c1C(=O)N(C1CCC(=O)NC1=O)C2=O)C[C@H]1CC[C@H](n2cc3cc(NC(=O)c4cccc(C(F)(F)F)n4)c(C(C)(C)O)cc3n2)CC1 (stereo not given in full) | 0.38 | – | – | – | 10 | 36 | – | 120 | 62 | 140 | 138 | – | 0.66 | – | – | – | –
6 | CN(CCCN(C)c1cccc2c1C(=O)N(C1CCC(=O)NC1=O)C2=O)C[C@H]1CC[C@H](n2cc3cc(NC(=O)c4cccc(C(F)(F)F)n4)c(C(C)(C)O)cc3n2)CC1 (stereo not given in full) | 0.64 | – | – | – | 282 | 14 | – | 308 | 200 | 300 | 250 | – | 4.2 | – | – | – | –
7 | CN(C[C@H]1CC[C@H](n2cc3cc(NC(=O)c4cccc(C(F)(F)F)n4)c(C(C)(C)O)cc3n2)CC1)[C@H]1CC[C@]2(CC1)C[C@H](Nc1cccc3c1C(=O)N(C1CCC(=O)NC1=O)C3=O)C2 (stereo not given in full) | – | – | – | – | 57 | 6 | – | 78 | 8 | < 1.8 | < 1.8 | – | 2.1 | – | – | – | –
8 | CC(C)(O)c1cc2nn([C@H]3CC[C@H](CO)CC3)cc2cc1NC(=O)c1cccc(C(F)(F)F)n1 | 0.37 | – | – | – | – | – | – | – | – | – | – | – | – | – | – | – | –
9 | CN(CCCO[C@H]1C[C@@H](Nc2cccc3c2C(=O)N(C2CCC(=O)NC2=O)C3=O)C1)C[C@H]1CC[C@H](n2cc3cc(NC(=O)c4cccc(C(F)(F)F)n4)c(C(C)(C)O)cc3n2)CC1 (stereo not given in full) | 0.34 | – | – | – | 10 | 43 | – | 166 | 75 | 26 | 16 | – | 2.8 | – | – | – | –
10 | CN(CCCO[C@H]1C[C@H](Nc2cccc3c2C(=O)N(C2CCC(=O)NC2=O)C3=O)C1)C[C@H]1CC[C@H](n2cc3cc(NC(=O)c4cccc(C(F)(F)F)n4)ccc3n2)CC1 (stereo not given in full) | – | – | – | – | 10 | 33 | – | 75 | 24 | 102 | 11 | – | 5.5 | – | – | – | –
11 | COc1cc2nc([C@H]3CC[C@H](CN4CC5(CC(CCNc6cccc7c6C(=O)N(C6CCC(=O)NC6=O)C7=O)C5)C4)CC3)cn2cc1NC(=O)c1cccc(C(F)(F)F)n1 (stereo not given in full) | – | 43 | 40 | 15 | 26 | 38 | < 1 | 154 | – | < 1.8 | < 1.8 | 0.01 | 0.64 | – | – | – | –
12 | CN(C[C@H]1CC[C@H](n2cc3cc(NC(=O)c4cccc(C(F)(F)F)n4)c(C(C)(C)O)cc3n2)CC1)[C@H]1CCC2(CC1)C[C@H](Nc1cccc3c1C(=O)N(C1CCC(=O)NC1=O)C3=O)C2 (stereo not given in full) | – | – | – | – | – | – | – | – | – | – | – | – | – | – | 86 | – | –
13 | CC(C)(O)c1cc2nn([C@H]3CC[C@H](CN4CCC5(CC4)CC(Nc4cccc6c4C(=O)N(C4CCC(=O)NC4=O)C6=O)C5)CC3)cc2cc1NC(=O)c1cccc(C(F)(F)F)n1 (stereo not given in full) | – | 13 | 13 | 12 | 27 | 3 | 17 | 25 | 10 | 1.2 | 2.7 | 1.4 | 2.8 | – | – | – | –
14 | COc1cc2nn([C@H]3CC[C@H](CN4CCC5(CC4)CC(CNc4cccc6c4C(=O)N(C4CCC(=O)NC4=O)C6=O)C5)CC3)cc2cc1NC(=O)c1cccc(C(F)(F)F)n1 (stereo not given in full) | – | 11 | – | 25 | 43 | 16 | – | 84 | 66 | 2.7 | 1.6 | – | 1.3 | – | – | 11 | 1.88
15 | COc1cc2nc([C@H]3CC[C@H](CN4CC5(CC(CCNc6cccc7c6C(=O)N(C6CCC(=O)NC6=O)C7=O)C5)C4)CC3)n(C)c2cc1NC(=O)c1cccc(C(F)(F)F)n1 (stereo not given in full) | – | 33 | 41 | 11 | 2 | 33 | 2.3 | 35 | – | 7 | 2.2 | 0.09 | 0.4 | – | – | – | –
16 | CC(C)(O)c1cc2nn(CCCCCCCCCNc3cccc4c3C(=O)N(C3CCC(=O)NC3=O)C4=O)cc2cc1NC(=O)c1cccc(C(F)(F)F)n1 (stereo not given) | 320 | – | – | – | 55 | 3300 | – | 588 | > 1100 | – | – | – | – | – | – | – | –
17 | O=C1CCC(N2C(=O)c3cccc(NCC4CC5(CCN(C[C@H]6CC[C@H](n7cc8cc(NC(=O)c9cccc(C(F)(F)F)n9)c(C(F)F)cc8n7)CC6)CC5)C4)c3C2=O)C(=O)N1 (stereo not given in full) | – | 11 | – | 29 | 69 | 56 | – | 142 | 58 | < 1.8 | < 1.8 | – | 2.7 | – | – | 16 | 1.5
18 | CC(C)(O)c1cc2c(cnn2CCCCCCCCCNc2cccc3c2C(=O)N(C2CCC(=O)NC2=O)C3=O)cc1NC(=O)c1cccc(C(F)(F)F)n1 (stereo not given) | > 3000 | – | – | – | 56 | > 10000 | – | 660 | 880 | – | – | – | – | – | 30 | – | –
19 | COc1cc2nn([C@H]3CC[C@H](CN(C)CCCO[C@H]4C[C@H](Nc5cccc6c5C(=O)N(C5CCC(=O)NC5=O)C6=O)C4)CC3)cc2cc1NC(=O)c1cccc(C(F)(F)F)n1 (stereo not given in full) | – | – | – | – | 28 | 29 | – | 360 | 23 | 19 | 10 | – | 2.4 | – | – | – | –
20 | CN(CCCO[C@H]1C[C@H](Nc2cccc3c2C(=O)N(C2CCC(=O)NC2=O)C3=O)C1)C[C@H]1CC[C@H](n2cc3cc(NC(=O)c4cccc(C(F)(F)F)n4)c(C(C)(C)O)cc3n2)CC1 (stereo not given in full) | 0.63 | 9.5 | 36 | 3.8 | 5 | 4 | 15 | 14 | 21 | 68 | 26 | 0.76 | 4.9 | – | – | – | –
21 | COc1cc2nn([C@H]3CC[C@H](CN4CC5(CC(CCNc6cccc7c6C(=O)N(C6CCC(=O)NC6=O)C7=O)C5)C4)CC3)cc2cc1NC(=O)c1cccc(C(F)(F)F)n1 (stereo not given in full) | – | 29 | – | 17 | 9 | 8 | – | 48 | 27 | 0.79 | 1.6 | – | 1 | – | – | 4.2 | 0.13
22 | Nc1cccc2c1C(=O)N(C1CCC(=O)NC1=O)C2=O (stereo not given) [POMALIDOMIDE] | – | – | – | – | – | – | – | 1400 | – | – | – | – | – | – | – | – | –
23 | CC(C)(O)c1cc2nn(CCCCCNCCCNc3cccc4c3C(=O)N(C3CCC(=O)NC3=O)C4=O)cc2cc1NC(=O)c1cccc(C(F)(F)F)n1 (stereo not given) | 2.2 | – | – | – | 17 | 128 | – | 125 | 79 | – | – | – | 0.42 | – | – | – | –
24 | CN(CCCO[C@H]1C[C@H](Nc2cccc3c2C(=O)N(C2CCC(=O)NC2=O)C3=O)C1)C[C@H]1CC[C@H](n2cc3cc(NC(=O)c4cccc(C(F)(F)F)n4)c(C(F)F)cc3n2)CC1 (stereo not given in full) | – | – | – | – | 17 | 13 | – | 46 | 24 | 25 | 32 | – | 0.76 | – | – | – | –

From ChEMBL document CHEMBL5523727, “Discovery of KT-413, a Targeted Protein Degrader of IRAK4 and IMiD Substrates Targeting MYD88 Mutant Diffuse Large B-Cell Lymphoma” (J Med Chem, 2024)
